From PubChem BioAssay (NCI)
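How tested: cells in 96-well plates exposed to compound for 48 hours at five concentrations. TGI: total growth inhibition.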

Legend:
Assay in all cases: NCI tumour cell line growth inhibition, 48 h
MDA-MB-435 = tested on: MDA-MB-435
HT29 colon = tested on: HT29 colon
MDA-MB-231 breast = tested on: MDA-MB-231 breast
MDA-N = tested on: MDA-N
OVCAR-8 ovarian = tested on: OVCAR-8 ovarian
K-562 leukemia = tested on: K-562 leukemia
COLO 205 colon = tested on: COLO 205 colon
HOP-62 NSCLC = tested on: HOP-62 NSCLC
A549 NSCLC = tested on: A549 NSCLC
DU-145 prostate = tested on: DU-145 prostate
ACHN renal = tested on: ACHN renal
SR leukemia = tested on: SR leukemia
KM12 colon = tested on: KM12 colon
A498 renal = tested on: A498 renal
SF-268 CNS = tested on: SF-268 CNS
OVCAR-5 ovarian = tested on: OVCAR-5 ovarian
PC-3 prostate = tested on: PC-3 prostate
BT-549 breast = tested on: BT-549 breast
NCI-H226 lung = tested on: NCI-H226 lung
NCI-H460 lung = tested on: NCI-H460 lung
HS 578T breast = tested on: HS 578T breast
SF-539 CNS = tested on: SF-539 CNS
TK-10 renal = tested on: TK-10 renal
SW-620 colon = tested on: SW-620 colon
UACC-257 melanoma = tested on: UACC-257 melanoma
M14 melanoma = tested on: M14 melanoma
NCI/ADR-RES ovarian = tested on: NCI/ADR-RES ovarian
NCI-H23 lung = tested on: NCI-H23 lung
SNB-19 CNS = tested on: SNB-19 CNS
SK-MEL-5 melanoma = tested on: SK-MEL-5 melanoma
SK-MEL-2 melanoma = tested on: SK-MEL-2 melanoma
SF-295 CNS = tested on: SF-295 CNS
SK-OV-3 ovarian = tested on: SK-OV-3 ovarian
CCRF-CEM leukemia = tested on: CCRF-CEM leukemia
U251 CNS = tested on: U251 CNS
HCT-15 colon = tested on: HCT-15 colon
HL-60(TB) leukemia = tested on: HL-60(TB) leukemia
NCI-H522 lung = tested on: NCI-H522 lung
LOX IMVI melanoma = tested on: LOX IMVI melanoma
T-47D breast = tested on: T-47D breast
HCC-2998 colon = tested on: HCC-2998 colon
SK-MEL-28 melanoma = tested on: SK-MEL-28 melanoma
IGROV1 ovarian = tested on: IGROV1 ovarian
SNB-75 CNS = tested on: SNB-75 CNS
EKVX NSCLC = tested on: EKVX NSCLC
SN12C renal = tested on: SN12C renal
HCT-116 colon = tested on: HCT-116 colon
786-0 renal = tested on: 786-0 renal
MCF7 breast = tested on: MCF7 breast
MOLT-4 leukemia = tested on: MOLT-4 leukemia
RPMI-8226 leukemia = tested on: RPMI-8226 leukemia
CAKI-1 renal = tested on: CAKI-1 renal
HOP-92 NSCLC = tested on: HOP-92 NSCLC
OVCAR-4 ovarian = tested on: OVCAR-4 ovarian
UACC-62 melanoma = tested on: UACC-62 melanoma
RXF 393 renal = tested on: RXF 393 renal
UO-31 renal = tested on: UO-31 renal
MALME-3M melanoma = tested on: MALME-3M melanoma
OVCAR-3 ovarian = tested on: OVCAR-3 ovarian

SMILES: c1cn(C23C4C5C6C4C2C6C53)cn1 (centres undefined)
- TGI (MDA-MB-435): > 100 µM
- TGI (HT29 colon): > 100 µM
- TGI (MDA-MB-231 breast): > 100 µM
- TGI (MDA-N): > 100 µM
- TGI (OVCAR-8 ovarian): > 100 µM
- TGI (K-562 leukemia): > 100 µM
- TGI (COLO 205 colon): > 100 µM
- TGI (HOP-62 NSCLC): > 100 µM
- TGI (A549 NSCLC): > 100 µM
- TGI (DU-145 prostate): > 100 µM
- TGI (ACHN renal): > 100 µM
- TGI (SR leukemia): > 100 µM
- TGI (KM12 colon): > 100 µM
- TGI (A498 renal): > 100 µM
- TGI (SF-268 CNS): > 100 µM
- TGI (OVCAR-5 ovarian): > 100 µM
- TGI (PC-3 prostate): > 100 µM
- TGI (BT-549 breast): > 100 µM
- TGI (NCI-H226 lung): > 100 µM
- TGI (NCI-H460 lung): > 100 µM
- TGI (HS 578T breast): > 100 µM
- TGI (SF-539 CNS): > 100 µM
- TGI (TK-10 renal): > 100 µM
- TGI (SW-620 colon): > 100 µM
- TGI (UACC-257 melanoma): > 100 µM
- TGI (M14 melanoma): > 100 µM
- TGI (NCI/ADR-RES ovarian): > 100 µM
- TGI (NCI-H23 lung): > 100 µM
- TGI (SNB-19 CNS): > 100 µM
- TGI (SK-MEL-5 melanoma): > 100 µM
- TGI (SK-MEL-2 melanoma): > 100 µM
- TGI (SF-295 CNS): > 100 µM
- TGI (SK-OV-3 ovarian): > 100 µM
- TGI (CCRF-CEM leukemia): > 100 µM
- TGI (U251 CNS): > 100 µM
- TGI (HCT-15 colon): > 100 µM
- TGI (HL-60(TB) leukemia): > 100 µM
- TGI (NCI-H522 lung): > 100 µM
- TGI (LOX IMVI melanoma): > 100 µM
- TGI (T-47D breast): > 100 µM
- TGI (HCC-2998 colon): > 100 µM
- TGI (SK-MEL-28 melanoma): > 100 µM
- TGI (IGROV1 ovarian): > 100 µM
- TGI (SNB-75 CNS): > 100 µM
- TGI (EKVX NSCLC): > 100 µM
- TGI (SN12C renal): > 100 µM
- TGI (HCT-116 colon): > 100 µM
- TGI (786-0 renal): > 100 µM
- TGI (MCF7 breast): > 100 µM
- TGI (MOLT-4 leukemia): > 100 µM
- TGI (RPMI-8226 leukemia): > 100 µM

SMILES: COc1c(O)cc(O)c2c(=O)cc(-c3ccccc3)oc12
- TGI (MDA-MB-435): > 100 µM
- TGI (HT29 colon): > 100 µM
- TGI (MDA-MB-231 breast): > 100 µM
- TGI (MDA-N): > 100 µM
- TGI (OVCAR-8 ovarian): > 100 µM
- TGI (K-562 leukemia): > 100 µM
- TGI (CAKI-1 renal): > 100 µM
- TGI (HOP-92 NSCLC): > 100 µM
- TGI (COLO 205 colon): > 100 µM
- TGI (HOP-62 NSCLC): 49.8 µM
- TGI (OVCAR-4 ovarian): > 100 µM
- TGI (A549 NSCLC): > 100 µM
- TGI (DU-145 prostate): 79.5 µM
- TGI (ACHN renal): > 100 µM
- TGI (SR leukemia): > 100 µM
- TGI (KM12 colon): > 100 µM
- TGI (SF-268 CNS): > 100 µM
- TGI (OVCAR-5 ovarian): > 100 µM
- TGI (PC-3 prostate): > 100 µM
- TGI (BT-549 breast): > 100 µM
- TGI (NCI-H226 lung): > 100 µM
- TGI (NCI-H460 lung): > 100 µM
- TGI (HS 578T breast): > 100 µM
- TGI (SF-539 CNS): > 100 µM
- TGI (UACC-62 melanoma): > 100 µM
- TGI (TK-10 renal): > 100 µM
- TGI (RXF 393 renal): 42.7 µM
- TGI (SW-620 colon): > 100 µM
- TGI (UACC-257 melanoma): > 100 µM
- TGI (M14 melanoma): > 100 µM
- TGI (NCI/ADR-RES ovarian): > 100 µM
- TGI (UO-31 renal): 6.04 µM
- TGI (NCI-H23 lung): > 100 µM
- TGI (SNB-19 CNS): > 100 µM
- TGI (SK-MEL-5 melanoma): > 100 µM
- TGI (SK-MEL-2 melanoma): > 100 µM
- TGI (SF-295 CNS): > 100 µM
- TGI (SK-OV-3 ovarian): > 100 µM
- TGI (CCRF-CEM leukemia): > 100 µM
- TGI (U251 CNS): > 100 µM
- TGI (HCT-15 colon): > 100 µM
- TGI (HL-60(TB) leukemia): 57.3 µM
- TGI (NCI-H522 lung): > 100 µM
- TGI (LOX IMVI melanoma): 68.8 µM
- TGI (HCC-2998 colon): > 100 µM
- TGI (SK-MEL-28 melanoma): > 100 µM
- TGI (IGROV1 ovarian): > 100 µM
- TGI (SNB-75 CNS): > 100 µM
- TGI (EKVX NSCLC): > 100 µM
- TGI (SN12C renal): > 100 µM
- TGI (MALME-3M melanoma): > 100 µM
- TGI (HCT-116 colon): 78.4 µM
- TGI (786-0 renal): > 100 µM
- TGI (MCF7 breast): > 100 µM
- TGI (MOLT-4 leukemia): > 100 µM
- TGI (OVCAR-3 ovarian): 72.5 µM
- TGI (RPMI-8226 leukemia): 37.1 µM

SMILES: Cc1cn(Cc2cnnn2CC2OC(n3cc(C)c(=O)[nH]c3=O)CC2O)c(=O)[nH]c1=O (centres undefined)
- TGI (MDA-MB-435): > 100 µM
- TGI (MDA-MB-231 breast): > 100 µM
- TGI (MDA-N): > 100 µM
- TGI (OVCAR-8 ovarian): > 100 µM
- TGI (CAKI-1 renal): > 100 µM
- TGI (HOP-92 NSCLC): > 100 µM
- TGI (COLO 205 colon): > 100 µM
- TGI (HOP-62 NSCLC): > 100 µM
- TGI (OVCAR-4 ovarian): > 100 µM
- TGI (A549 NSCLC): > 100 µM
- TGI (DU-145 prostate): > 100 µM
- TGI (ACHN renal): > 100 µM
- TGI (KM12 colon): > 100 µM
- TGI (A498 renal): > 100 µM
- TGI (SF-268 CNS): > 100 µM
- TGI (OVCAR-5 ovarian): > 100 µM
- TGI (PC-3 prostate): > 100 µM
- TGI (BT-549 breast): > 100 µM
- TGI (NCI-H226 lung): > 100 µM
- TGI (HS 578T breast): > 100 µM
- TGI (SF-539 CNS): > 100 µM
- TGI (UACC-62 melanoma): > 100 µM
- TGI (TK-10 renal): > 100 µM
- TGI (RXF 393 renal): > 100 µM
- TGI (SW-620 colon): > 100 µM
- TGI (UACC-257 melanoma): > 100 µM
- TGI (M14 melanoma): > 100 µM
- TGI (NCI/ADR-RES ovarian): > 100 µM
- TGI (UO-31 renal): > 100 µM
- TGI (NCI-H23 lung): > 100 µM
- TGI (SNB-19 CNS): > 100 µM
- TGI (SK-MEL-5 melanoma): > 100 µM
- TGI (SK-MEL-2 melanoma): > 100 µM
- TGI (SF-295 CNS): > 100 µM
- TGI (SK-OV-3 ovarian): > 100 µM
- TGI (CCRF-CEM leukemia): > 100 µM
- TGI (U251 CNS): > 100 µM
- TGI (HCT-15 colon): > 100 µM
- TGI (LOX IMVI melanoma): > 100 µM
- TGI (T-47D breast): > 100 µM
- TGI (HCC-2998 colon): > 100 µM
- TGI (SK-MEL-28 melanoma): > 100 µM
- TGI (IGROV1 ovarian): > 100 µM
- TGI (EKVX NSCLC): > 100 µM
- TGI (SN12C renal): > 100 µM
- TGI (MALME-3M melanoma): > 100 µM
- TGI (HCT-116 colon): > 100 µM
- TGI (MCF7 breast): > 100 µM
- TGI (MOLT-4 leukemia): > 100 µM
- TGI (OVCAR-3 ovarian): > 100 µM
- TGI (RPMI-8226 leukemia): > 100 µM
